Assays:
[1] = target: T1, PAR2 (Mus musculus, UniProt P55086); test: Local intraplantar coinjection of C781 with PAR2 agonist 2AT: von Frey, Mouse Grimace Scale, hyperalgesic priming (PGE2); assay type: in vivo, C57BL6 mice; details: 2AT 20.9 ng intraplantar
T1 construct: from tissue; host or cells: living C57BL6 mice (hind paw / nociceptors)
T1 sequence (P55086 26-399): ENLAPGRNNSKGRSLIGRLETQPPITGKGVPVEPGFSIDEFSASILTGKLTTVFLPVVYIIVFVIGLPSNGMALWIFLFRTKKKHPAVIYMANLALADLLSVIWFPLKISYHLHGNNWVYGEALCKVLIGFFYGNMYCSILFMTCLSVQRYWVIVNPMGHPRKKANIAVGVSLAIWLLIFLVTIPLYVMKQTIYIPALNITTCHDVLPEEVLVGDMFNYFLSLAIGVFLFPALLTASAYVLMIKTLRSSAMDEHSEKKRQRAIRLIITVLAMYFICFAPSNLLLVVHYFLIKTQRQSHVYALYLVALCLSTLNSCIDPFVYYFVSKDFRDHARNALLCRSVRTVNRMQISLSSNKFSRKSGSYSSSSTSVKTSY
Protocol: Experimenters were blinded to treatment groups in all experiments. Animals were habituated to suspended acrylic chambers with each individual chamber measuring 11.4 × 7.6 × 7.6 cm and a wire mesh bottom (1 cm^2). Mechanical hypersensitivity was assessed using the manual von Frey hair test after spontaneous pain assessment using the Mouse Grimace Scale (MGS). This was done to assure that grimacing responses were not a result of mechanical stimulation.
MGS were determined using the MGS test as described by Langford and colleagues.[37] After habituation, the experimenter observed the mice and assigned intensity ratings (0 = not present, 1 = moderately present, 2 = severe) to the facial action units relative to baseline. The 5 action units identified are 1) orbital tightening, 2) nose bulge, 3) cheek bulge, 4) ear position, and 5) whisker change. The scores for all 5 action units are averaged to obtain the MGS score for each time point.
Hind paw withdrawal thresholds were calculated via the Dixon up-down method after applying calibrated von Frey filaments from Stoelting, Co. (cat# 58011) to the volar surface of the left hind paw.[12] […] The maximum filament weight used was 2 g.
Hyperalgesic priming was determined after allowing animals to return to baseline levels and injecting the previously injected paw with 100 ng of PGE2 (Cayman Chemical, Ann Arbor, MI). […]

[2] = in vitro; assay type: in vitro ADME, mice; details: mouse; for fraction unbound at 4 h, 5 µM: plasma
Protocol: (§1) The objective of this study was to evaluate protein binding test compounds in human and mice plasma. This was accomplished by spiking the test compounds at a concentration of 5 µM into human and mice plasma and dialyzing against buffer until equilibrium is achieved (4 hours). Analyte area ratios of the test compounds in plasma and buffer were determined to calculate unbound and bound percentages of compound to the plasma proteins.
(§2) Compound concentration : 5 µM
(§3) Rapid equilibrium dialysis was performed with a rapid equilibrium dialysis (RED) device containing dialysis membrane with a molecular weight cut-off of 8,000 Daltons. Each dialysis insert contains two chambers. The red chamber is for plasma while the white chamber is for buffer.
(§4) After sealing the RED device with an adhesive film, dialysis was performed in incubator at 37 °C with shaking at 100 RPM for 4 hours.
(§5) Two aliquots were frozen immediately (0 minute sample). The other two aliquots were incubated at 37 °C for 4 hours along with the RED device.
(§6) Following dialysis, an aliquot of 50 µL was removed from each well (both plasma and buffer side) and diluted with equal volume of opposite matrix (dialyzed with the other matrix) to nullify the matrix effect. Similarly, 50 µL of buffer was added to recovery and stability samples. An aliquot of 100 µL was submitted for LC-MS/MS analysis.
(§7) The peak area ratios (analyte versus internal standard) obtained was used to determine the fraction of compound bound to plasma proteins. The following equation was used to determine the extent of plasma protein binding:
(§8) Percent free drug = 100 x (peak area ratio in dialysate buffer)
(§9) Percent bound drug = 100 - % free drug
(§10) Recovery (%): 100 x (response plasma + response buffer) after dialysis / (response plasma) incubated at 37 °C in tubes along with RED device.
(§11) Stability (%):100 x (response plasma) incubated at 37 °C in tubes along with RED device / (response plasma) samples frozen at 0 min

[3] = in vitro; assay type: in vitro ADME; details: human; for fraction unbound at 4 h, 5 µM: plasma
Protocol: as §1, §2, §3, §4, §5, §6, §7, §8, §9, §10, §11

Row | Compound | Nociceptive behaviors evoked by agonist (mechanical hypersensitivity, facial grimacing) [1] | Hyperalgesic priming by agonist (response to PGE2) ([1]; then PGE2 100 ng intraplantar) | recovery at 4 h, 5 µM ([2]; pH 7.4) [%] | fraction unbound at 4 h, 5 µM ([2]; pH 7.4, % Bound Mean ± SD) | fraction unbound at 4 h, 5 µM ([2]; pH 7.4, % Bound R1) | fraction unbound at 4 h, 5 µM ([2]; pH 7.4, % Bound R2) | fraction unbound at 4 h, 5 µM ([2]; pH 7.4, % Bound R3) | recovery at 4 h, 5 µM ([3]; pH 7.4) [%] | fraction unbound at 4 h, 5 µM ([3]; pH 7.4, % Bound Mean ± SD) | fraction unbound at 4 h, 5 µM ([3]; pH 7.4, % Bound R1) | fraction unbound at 4 h, 5 µM ([3]; pH 7.4, % Bound R2) | fraction unbound at 4 h, 5 µM ([3]; pH 7.4, % Bound R3)
1 | 2-aminothiazo-4-yl-LIGRL-NH2 [Compound 2AT] | caused both mechanical hypersensitivity and facial grimacing | primed and exhibited mechanical allodynia and facial grimacing in response to PGE2 | – | – | – | – | – | – | – | – | – | –
2 | CC(=O)CC(c1ccccc1)c1c(O)c2ccccc2oc1=O (stereo not drawn) [Warfarin] | – | – | 94 | 0.061 | 0.058 | 0.057 | 0.07 | 97 | 0.011 | 0.012 | 0.01 | 0.011
